IC50 and Kd data for four compounds are collected here from paper PMC11149620 (Journal of medicinal chemistry, 2024).

Read-outs that look alike come from different tables or passages of the source. Where no end group is shown, it is not given here.

Test [1] relates to ATAD2 BRD. To be noted: induces dimerization of the ATAD2 BRD to block binding to acetylated histones; cited from earlier work.
Test [2] addresses T1, human ATAD2B BRD-containing protein (residues 953–1085) (Homo sapiens, UniProt Q9ULI0).
T1 sequence (Q9ULI0 953-1085): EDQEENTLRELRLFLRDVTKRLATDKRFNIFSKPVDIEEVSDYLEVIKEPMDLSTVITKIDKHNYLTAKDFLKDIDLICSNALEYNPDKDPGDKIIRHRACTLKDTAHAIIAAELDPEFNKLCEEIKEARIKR
To be noted: read-out: KD for ATAD2B; ITC; cited from earlier work.

In test [3] the target is T1, human ATAD2B BRD-containing protein (residues 953–1085). Kind of test: ITC of histone peptides with the ATAD2B BRD.
The target of test [4] is T2, Human ATAD2 BRD-containing protein (residues 966–1112) (Homo sapiens, UniProt Q6PL18).
T2 sequence (Q6PL18 966-1112): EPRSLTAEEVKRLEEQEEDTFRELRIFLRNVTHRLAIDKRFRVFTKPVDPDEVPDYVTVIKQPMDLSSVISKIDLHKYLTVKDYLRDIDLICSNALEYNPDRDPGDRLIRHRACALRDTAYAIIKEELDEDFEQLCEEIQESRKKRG
To be noted: read-out: KD for ATAD2; ITC; cited from earlier work.

As usually defined, the IC50 is the concentration that inhibits the measured activity by half. As to `COc1cc(Cl)c(C(=O)N[C@@H](CN[C@H]2CC[C@@H](N)CC2)Cc2ccc(C#N)cc2)cc1-c1ccc(CN[C@H](C)c2ccc(C)cc2)o1` [BAY-850], in test [1], the IC50 was 0.02 µM.

A word on the Kd: it is the equilibrium constant for the complex coming apart. As for “H4K5ac (1–15): wild-type histone H4K5ac ligand residues 1–15, values from earlier papers”, the Kd in test [2] was 5.2 ± 1 µM.

In test [3], “SGRGKTGGK(Ac)ARAKAKSR-NH2 [H2A.XK9ac (1–17)]” gave a Kd of 90 ± 12.8 µM.

SGRGKacQGGKARA [H2AK5ac (1–12)]: the results for the Kd in test [4] and in test [2] were 38.9 ± 5.9 µM and 42.5 ± 2.9 µM, respectively.
